Values of other authors in publication PMC2810227, “3-O-Methylfunicone, a Selective Inhibitor of Mammalian Y-Family DNA Polymerases from an Australian Sea Salt Fungal Strain” (Marine Drugs, 2009).

Columns and labels:
pol α = system: pol α; parameters: method as in PMID 467434; details: not competing with the other three deoxynucleoside triphosphates; cited from earlier work
[1] = system: family B pols, such as pols α, δ and ɛ; parameters: method as in PMID 467434; details: cited from earlier work

Compound: C[C@@]1(CO)[C@H](O)CC[C@@]2(C)[C@H]1CC[C@H]1C[C@@H]3C[C@@]12CC[C@]3(O)CO [aphidicolin]
- mode of inhibition of pol α with respect to individual deoxynucleoside triphosphates (pol α): competing with dCTP
- mode of inhibition with the DNA template-primer ([1]; activated DNA): uncompetitive
- mode of inhibition with respect to the dNTP substrate [1]: competitive
